According to article PMC11469249, “Enzyme‐Triggered L‐α/D‐Peptide Hydrogels as a Long‐Acting Injectable Platform for Systemic Delivery of HIV/AIDS Drugs” (Advanced Healthcare Materials, 2023):
Where a SMILES comes first, the peptide text is derived from it. [ ]: non-standard residue; d: D form. The star is where a group is joined. X1 = Cc1cn([C@H]2C[C@H](N=[N+]=[N-])[C@@H](COC(=O)CCC(=O)*)O2)c(=O)[nH]c1=O; Acetyl(2-naphthyl) = O=C(Cc1ccc2ccccc2c1)*; pY = N[C@@H](Cc1ccc(OP(=O)(O)O)cc1)C(=O)O

Experiments:
NCTC 929 (ATCC CCL 1) = test: MTS viability assay, solubilized peptides; format: cell-based, murine; details: 500 µM; at each timepoint (6, 24, 72 h)
Experimental: Cell toxicity was assessed above and below critical gelation concentrations utilizing the International Standard (ISO) murine fibroblast subcutaneous connective tissue cell line NCTC 929 (ATCC CCL 1).^[ [51] ^]
Preparation of tissue cell cytotoxicity assays: Cells were cultured in Minimum Essential Medium (MEM) containing phenol red, Earle's Salts, and L‐glutamine supplemented with 10% fetal bovine serum and 1 mM sodium pyruvate (Invitrogen, Paisley, UK) and grown at 37 °C/5% CO2. Cells were subcultured at 80–90% confluency via removal of media, washing with sterile PBS, and detachment of cell monolayers with 0.05% trypsin/0.53 mM EDTA.4Na solution (Invitrogen, Paisley, UK). Cells were cultured until at least the third passage, seeded at 1 × 10^4 cells per well in sterile 96‐well microtiter plates for 6 h, 24 h, and 56 day treatment times and seeded at 5 × 10^3 cells per well for 72 h treatment times. […]
Following exposure to peptide after 6, 24 and 72 h, cell viability was assessed using a MTS based CellTiter 96 AQueous One Solution Cell Proliferation Assay (Promega, Southampton, UK). Absorption was measured at 490 nm using a Tecan Sunrise plate reader (Tecan UK Ltd, Reading, UK). Cell viability was calculated using Equation (2) below and reported as the mean of nine replicates.

proteinase K = proteinase K (Parengyodontium album, UniProt P06873); test: Biostability against proteinase K; format: in vitro ADME; details: after 672 h (28 days); 0.02 w/v% peptide in PBS; proteinase K 3 U/mL; 37 °C; RP-HPLC peak area vs t = 0; mean n = 3
Chain of proteinase K (P06873 106-384): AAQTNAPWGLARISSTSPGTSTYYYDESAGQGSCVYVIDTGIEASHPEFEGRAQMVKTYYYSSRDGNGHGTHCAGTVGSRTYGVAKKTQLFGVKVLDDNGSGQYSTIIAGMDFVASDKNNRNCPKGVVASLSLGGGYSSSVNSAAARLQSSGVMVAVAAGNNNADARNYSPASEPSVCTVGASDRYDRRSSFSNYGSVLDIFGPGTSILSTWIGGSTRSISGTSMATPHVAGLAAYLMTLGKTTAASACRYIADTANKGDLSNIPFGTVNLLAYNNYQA
Experimental: Peptides were tested for stability at multiple time points over 28 days by incubation with the broad‐spectrum protease proteinase K. Peptides were tested in solution form at concentrations below their critical gelation concentrations (0.02 w/v%) to reduce any resistance to proteolysis offered by the hydrogel matrix itself.^[ [76] ^] 1 mL aliquots of peptide dissolved in PBS buffer were added to Eppendorf tubes. Proteinase K was added at a concentration of 3 U/mL and incubated at 37 °C. Then 100 µL samples were removed at pre‐determined time points (t = 0, 0.5, 1, 3, 6, 24, 72, 168, 336, 504, and 672 h) and added to 50 µL of concentrated acetic acid to inactivate proteinase K enzyme. Then 100 µL samples were then analyzed via RP‐HPLC. The amount of peptide remaining at each time point was calculated based on the area of the peak corresponding to the peptide and presented as a percentage of the area of this peak at t = 0 (Equation (1)). (1) %Peptideremaining=Areaofpeptidepeakattesttimepoint/[Areaofpeptidepeakatt=0]×100

[1] = system: alkaline phosphatase enzyme; test: Rheological time sweeps, gelation time after alkaline phosphatase addition; format: physicochemical; details: time sweep, 2 w/v%, 2 U alkaline phosphatase, 37 °C; for G′ and G″ cross (gelation time): PP50/S parallel plate, 0.5 mm gap
Experimental: The gelation of peptides and peptide‐antiretroviral conjugates was tested over a range of concentrations (0.1–2 w/v%) in pH 7.4 phosphate buffered saline (PBS). The ability of alkaline phosphatase enzyme to trigger gelation was studied by adding 2 µL of 2 U (1000 U/mL) solution to the dissolved peptide‐PBS mixtures. Hydrogel formulation steps are outlined fully in Table S2, Supporting Information. A vial inversion assay was used as a screening tool to assess gel propensity, whereby peptide‐PBS‐alkaline phosphatase mixtures were inverted within glass HPLC vials. Gel formation and the mechanical strength of gels were definitively characterized via oscillatory rheology using an Anton Paar MCR302 rheometer (Anton Paar, St Albans, UK). A vane and cup geometry was used to perform frequency and strain sweeps. Gels were formulated as 2 mL volumes in 7 mL Sterilin vials as previously described.^[ [39b] ^] Frequency sweeps were performed at 37 °C from 1–100 rad/s at a strain of 0.5%. Amplitude sweeps were performed at 37 °C, 2.5 rad/s and a strain of 0.01–1000%. Flow point or breakage strain, where G″ ≥ G′ within the strain sweeps, was used as a measurement of gel strength. Time sweeps were performed using a sand blasted parallel plate PP50/S system at 37 °C with a 0.5 mm measuring gap over a period of 24 h. Loss and storage moduli, critical strain, viscosity, and oscillatory time sweeps were performed to relate rheological changes with time and potential for rapid in situ hydrogel implant formation upon exposure to 2 U phosphatase enzyme.
Table S3. Gelation times for peptide hydrogels upon addition of alkaline phosphatase enzyme derived from data above in Figure S12 and Figure 3 c-d.
Peptide G′ and G″ G′ > 2x G′′ Time for […]
d) NapFFK(AZT)Y-OH 8.5 min 9 min 88.3 min

[2] = Small angle neutron scattering (SANS) of hydrogels; format: physicochemical; details: 2 w/v% hydrogels in D2O; flexible cylinder elliptical model with Power Law
Experimental: SANS was used to determine the morphology of the structures underpinning the hydrated peptide gel network. Both drug and non‐drug conjugated forms of peptides L‐α (NapFFKY‐OH and NapFFKYG‐OH) and D‐enantiomer (NapffkY‐OH and NapffkYG‐OH) were studied. Peptide hydrogels (2 w/v%) were formulated as described (Table S2, Supporting Information) in 2 mm path length UV spectrophotometer grade quartz cuvettes (Hellma) but using deuterated water (D2O) rather than PBS. SANS measurements were performed using the D11 instrument at the Institut Laue – Langevin, Grenoble, France. Scattering from the primary assembled structures (most commonly fibers) and the network were collected over a wide Q range (Q = 4πsin(θ/2)/λ) of 0.001 to 0.5 Å^−1 and three sample‐detector distances (1.4, 8, and 39 m).^[ [44] ^] Peptide samples were placed in a temperature‐controlled sample rack during measurements. The datasets obtained were reduced to 1D scattering curves of intensity versus Q using the facility provided software. Scattering from D2O controls, empty cuvette, and electronic background were subtracted from the data and the full detector images were normalized. SasView software version 5.0.4 was used to fit instrument‐independent data to several models with and without a power law applied, including a cylinder, an elliptical cylinder, a flexible cylinder, a flexible elliptical cylinder and hollow cylinders. […]

NCTC 929 cells = test: 56 day indirect toxicity of hydrogels, LDH; format: cell-based, murine; details: 2 w/v% hydrogel supernatant; 6 h exposure; n = 3
Experimental: Biocompatibility at the highest gel concentration of 2.0 w/v% was examined by measuring cell metabolic activity (MTS) and cytotoxicity (LDH release) in the presence of media containing leached degradation products from the peptide gels over a period of 56 days.^[ [77] ^] Following the formation of gels as outlined in Table S2, Supporting Information, 2 mL of media was added on top of each gel (1 mL of 2 w/v% gel) within a 10 mL glass vial and incubated at 37 °C and 5% CO2. For each time point in the 56 day study, NCTC 929 cells at 80–90% confluency were seeded into the wells of a 96 well plate at a concentration of 1 × 10^4 cells per well and incubated for a period of 24 h. One set of wells was left untreated and acted as the negative control, that is, metabolic activity of cells with no peptide. In the case of the LDH indirect toxicity assay, the media was removed from the cells before adding 50 µL of fresh media and 50 µL of the supernatant from the 2.0 w/v% gels at specific time points: 1, 3, 7, 14, 21, 28, and 56 days and incubated for 6 h before adding the test reagent as described above. A high LDH release control and a low LDH release control were created as before. Each experiment was performed in triplicate. The percentage cytotoxicity was calculated using Equation (2) above. […] The metabolic activity was calculated using Equation (1) above.

## Cc1cn([C@H]2C[C@H](N=[N+]=[N-])[C@@H](COC(=O)CCC(=O)NCCCC[C@H](NC(=O)[C@H](Cc3ccccc3)NC(=O)[C@H](Cc3ccccc3)NC(=O)Cc3ccc4ccccc4c3)C(=O)N[C@@H](Cc3ccc(OP(=O)(O)O)cc3)C(=O)O)O2)c(=O)[nH]c1=O [NapFFK(AZT)Y(p)-OH] ({Acetyl(2-naphthyl)}-FFK(X1)[pY]-OH)
NCTC 929 (ATCC CCL 1)
  reduction in cell metabolic activity (MTS): 40–51%

## Cc1cn([C@H]2C[C@H](N=[N+]=[N-])[C@@H](COC(=O)CCC(=O)NCCCC[C@H](NC(=O)[C@H](Cc3ccccc3)NC(=O)[C@H](Cc3ccccc3)NC(=O)Cc3ccc4ccccc4c3)C(=O)N[C@@H](Cc3ccc(OP(=O)(O)O)cc3)C(=O)NCC(=O)O)O2)c(=O)[nH]c1=O [NapFFK(AZT)Y(p)G-OH]
Subcutaneous administration, within IC50 range
  zidovudine blood plasma concentrations for 35 days: 30 to 130 ng/mL

## NCCCC[C@H](NC(=O)[C@H](Cc1ccccc1)NC(=O)[C@H](Cc1ccccc1)NC(=O)Cc1ccc2ccccc2c1)C(=O)N[C@@H](Cc1ccc(OP(=O)(O)O)cc1)C(=O)O [NapFFKY(p)-OH, phosphorylated (naphthalene‐2‐ly)‐acetyl‐diphenylalanine‐lysine‐tyrosine‐OH] (HELM PEPTIDE1{[O=C(Cc1ccc2ccccc2c1)[*:2]].F.F.K.[O=C(O)[C@H](Cc1ccc(OP(=O)(O)O)cc1)N[*:1]]}$$$$V2.0)
Proteinase K
  % peptide remaining: 85.4%

## NCCCC[C@H](NC(=O)[C@H](Cc1ccccc1)NC(=O)[C@H](Cc1ccccc1)NC(=O)Cc1ccc2ccccc2c1)C(=O)N[C@@H](Cc1ccc(OP(=O)(O)O)cc1)C(=O)NCC(=O)O [NapFFKY(p)G-OH]
Proteinase K
  % peptide remaining: 91.9%

## Cc1cn([C@H]2C[C@H](N=[N+]=[N-])[C@@H](CO)O2)c(=O)[nH]c1=O [zidovudine, reference compound]
Zidovudine intravenous control
  time after which plasma zidovudine is undetectable: 6 h

## NapFFKY-OH [hydrogel-forming peptide after phosphatase removal of the phosphate group]
[1]
  G′ > 2x G″: 9.67 min
  Time for stable G′: 68.3 min
  G′ and G″ cross (gelation time): 8.58 min
[2]
  fiber radius: 1.495 nm

## NapFFKYG-OH [hydrogel-forming L-α peptide with glycine spacer]
[1]
  G′ > 2x G″: 7.75 min
  Time for stable G′: 65.7 min
  G′ and G″ cross (gelation time): 5.92 min
NCTC 929 cells
  LDH cell toxicity, indirect, after 21 days: 23.2%
  LDH cell toxicity, indirect, after 56 days: 37%
[2]
  fiber radius: 2.038 nm
